Test: mn = molality of the nth substance listed, in mol/kg
Details: 100 kPa, Liquid, Direct current cell with electrodes

CCCC[N+](CCCC)(CCCC)CCCC.[Br-] [tetrabutylammonium bromide] + CN(C)C=O
Details	molar conductivity [S·m2/mol]
303.15 K, m1 = 0.0001279	0.008182
303.15 K, m1 = 0.0003737	0.008028
303.15 K, m1 = 0.0004937	0.007975
303.15 K, m1 = 0.0007203	0.0078909
303.15 K, m1 = 0.00121	0.0077502
303.15 K, m1 = 0.002013	0.0075724
303.15 K, m1 = 0.002974	0.0074063
303.15 K, m1 = 0.003957	0.0072634
303.15 K, m1 = 0.005917	0.0070358
303.15 K, m1 = 0.00787	0.0068512
303.15 K, m1 = 0.009823	0.0066956
303.15 K, m1 = 0.01184	0.0065521
308.15 K, m1 = 0.0001375	0.008672
308.15 K, m1 = 0.0003374	0.008537
308.15 K, m1 = 0.0005902	0.008422
308.15 K, m1 = 0.0007253	0.0083707
308.15 K, m1 = 0.001221	0.0082189
308.15 K, m1 = 0.002004	0.0080331
308.15 K, m1 = 0.002993	0.0078504
308.15 K, m1 = 0.003956	0.0077012
308.15 K, m1 = 0.005922	0.0074573
308.15 K, m1 = 0.007903	0.0072572
308.15 K, m1 = 0.009896	0.007088
308.15 K, m1 = 0.01189	0.0069381
313.15 K, m1 = 6.835e-05	0.009246
313.15 K, m1 = 0.0003232	0.009042
313.15 K, m1 = 0.0005979	0.008909
313.15 K, m1 = 0.0007057	0.0088651
313.15 K, m1 = 0.001228	0.0086936
313.15 K, m1 = 0.002045	0.0084879
313.15 K, m1 = 0.002992	0.0083023
313.15 K, m1 = 0.003971	0.0081415
313.15 K, m1 = 0.00585	0.0078927
313.15 K, m1 = 0.00787	0.0076738
313.15 K, m1 = 0.009873	0.0074917
313.15 K, m1 = 0.01189	0.007332
318.15 K, m1 = 9.782e-05	0.009714
318.15 K, m1 = 0.0003254	0.009541
318.15 K, m1 = 0.0005324	0.009434
318.15 K, m1 = 0.0007651	0.0093342
318.15 K, m1 = 0.001206	0.0091821
318.15 K, m1 = 0.001977	0.0089725
318.15 K, m1 = 0.002989	0.0087596
318.15 K, m1 = 0.003967	0.0085894
318.15 K, m1 = 0.005938	0.0083142
318.15 K, m1 = 0.007894	0.0080896
318.15 K, m1 = 0.009905	0.0078947
318.15 K, m1 = 0.01189	0.0077299

— the NIST ThermoML archive (doi:10.1021/je300252d)
